# Measured values taken from a melting point compilation (Tetko et al.; mined from patent text by program, amines drawn as free bases though some values may be those of a salt).
row,melting point [°C],Compound
1,95 to 105,Cc1noc(NS(=O)(=O)c2ccccc2-c2ccc(-c3ncco3)cc2COc2ccc(-c3ccccc3)cc2)c1C
2,156 to 157,CCOc1ccc(C(=O)CCC(=O)Nc2cc(OCc3ccccc3)cc(-c3ccccc3)n2)cc1OCC
3,188 to 190,O=C(O)Cc1cc(Cl)cc2c(-c3ccccc3)onc12
4,170,Cc1ccc(=NC(=O)C(F)(F)F)n(Cc2ccc(Cl)s2)c1
5,128 to 130,O=C(NCCCOc1cccc(CN2CCCCC2)c1)Nc1ccc2c(c1)OCO2
6,196 to 198,CC(=O)Nc1nc2c(nc(F)n2COCCOC(C)=O)c(=O)[nH]1
7,88 to 88.5,CCOP(=O)(Cc1cc(C=O)ccc1O)OCC
8,134 to 137,CCc1cccc(CC)c1NC(=O)c1c2n(c(C)cc1=O)CCCC2
9,150 to 151,COC(=O)c1ccc(Cc2cn(C)c3ccc(C(=O)NCC(C)CC(F)(F)F)cc23)c(OC)c1 (centres undefined)
10,115 to 116,CC(C)(C)[C@H](NC(=O)[C@@H](CC(=O)OCc1ccccc1)n1ccc(-c2ccc(-c3ccc(C#N)cc3)cc2)c1)C(=O)Nc1ccncc1
11,214 to 215,COc1nc2cc([N+](=O)[O-])c(C)c(C(=O)Nc3ccc(C)cc3)c2nc1OC
12,162 to 164,Cc1ccc(-c2c(C)c3cc(O)ccc3n2Cc2ccc(OCCN3CCCCC3)cc2)cc1
13,186 to 187,CC1(C)CC(OC(=O)Nc2ccccc2)CC(C)(C)N1CC(O)c1ccccc1 (centres undefined)
14,99 to 101,CC(=O)N1CCC(c2nn(-c3ccc(F)cc3)c3ccccc23)CC1
15,161 to 162,COc1cc(COc2nn(-c3ccccc3)cc2CCC(=O)O)ccc1OCc1nc(-c2ccco2)oc1C
16,139 to 140,COc1ccc2c(c1)CCc1nn(-c3ccccn3)c(O)c1-2
17,79,CNc1c([N+](=O)[O-])ccc(Sc2ccccc2)c1Cl
18,63.5 to 66,O=C1COCC2CCCN12 (centres undefined)
19,88 to 91,COc1cc(N)c(C(=O)O)c(OC)c1OC
20,> 300,Oc1cccc(-c2ccncc2)c1

row,melting point [°C],Compound
1,> 250,O=Cc1c[nH]c2c1ccc1c2[nH]c2cccc(Br)c21
2,127,CCCCOC(=O)c1c(-c2cnccn2)ssc1=S
3,235,Fc1ccc(Cn2c(NC3CCN(CCn4c(=S)[nH]c5ccccc54)CC3)nc3ccccc32)cc1
4,49 to 52,CCOC(=O)Cc1ccc(OCc2ccc3c(c2)OCO3)cc1
5,76 to 78,CCOC(=O)C=C(C)c1ccc(-c2ccccc2)cc1
6,241 to 242,COc1cc(Nc2cc(-c3nnc(C)o3)ccn2)cc(C(F)(F)F)c1
7,174,COC(=O)c1ccccc1S(=O)(=O)Nn1c(C)nn(-c2nc(OC)cc(OC)n2)c1=O
8,225 to 226,Cc1cnc(N2CCC(c3ccc(NS(C)(=O)=O)cc3)CC2)n1C
9,85 to 86,COc1ccc(C(=O)c2c(Cc3ccccc3)sc(C)c2C)cc1
10,184 to 186,CC(=O)OC1C(C)OC(Oc2nc[nH]c2C(N)=O)C(OC(C)=O)C1OC(C)=O (centres undefined)
11,185 to 186,COCCc1nc2c(N)nc3cc(OCc4ccccc4)ccc3c2n1CC(C)(C)O
12,167 to 169,CCCn1c(COCC)nc2c(N)nc3ccc(OCCCCCCNC(=O)NC(C)C)cc3c21
13,57 to 59,CC(C)(C)C1OC1C(O)c1ccccc1 (centres undefined)
14,88 to 90,CCCCCCCCCCCCCCCCNc1cc(O)ccc1OCC
15,193,COc1cncc(-c2ccc(OC3SCC(O)C(O)C3O)cn2)c1 (centres undefined)
16,158 to 163,Clc1ccc(C2c3ccc(Cl)cc3-c3ncncc32)cc1 (centres undefined)
17,142 to 144,O=C(O)c1ccc(Cl)cc1Cc1ccccc1
18,94.5 to 96.5,CCN(CC)CCNc1ncc2cc(-c3c(Cl)cccc3Cl)c(NC(=O)NC(C)(C)C)nc2n1
19,203 to 206,CC(=O)NC1CCc2c([nH]c3ccccc23)C1 (centres undefined)
